Laboratory results reported in PMC3623016 (Journal of biomolecular screening, 2012).
Where “and” joins values, the source holds several entries; their conditions need not be identical. Equal entries are not always repeated.

What was measured:
ABCG2 = biological target: T1, ABCG2 (Homo sapiens, UniProt Q9UNQ0); test: JC-1 efflux inhibition dose-response, flow cytometry, Ig-MXP3 cells; assay type: cell-based; details: quotient of average ABCB1 IC50 and average ABCG2 IC50, JC-1 efflux assay
T1 sequence (Q9UNQ0 1-655): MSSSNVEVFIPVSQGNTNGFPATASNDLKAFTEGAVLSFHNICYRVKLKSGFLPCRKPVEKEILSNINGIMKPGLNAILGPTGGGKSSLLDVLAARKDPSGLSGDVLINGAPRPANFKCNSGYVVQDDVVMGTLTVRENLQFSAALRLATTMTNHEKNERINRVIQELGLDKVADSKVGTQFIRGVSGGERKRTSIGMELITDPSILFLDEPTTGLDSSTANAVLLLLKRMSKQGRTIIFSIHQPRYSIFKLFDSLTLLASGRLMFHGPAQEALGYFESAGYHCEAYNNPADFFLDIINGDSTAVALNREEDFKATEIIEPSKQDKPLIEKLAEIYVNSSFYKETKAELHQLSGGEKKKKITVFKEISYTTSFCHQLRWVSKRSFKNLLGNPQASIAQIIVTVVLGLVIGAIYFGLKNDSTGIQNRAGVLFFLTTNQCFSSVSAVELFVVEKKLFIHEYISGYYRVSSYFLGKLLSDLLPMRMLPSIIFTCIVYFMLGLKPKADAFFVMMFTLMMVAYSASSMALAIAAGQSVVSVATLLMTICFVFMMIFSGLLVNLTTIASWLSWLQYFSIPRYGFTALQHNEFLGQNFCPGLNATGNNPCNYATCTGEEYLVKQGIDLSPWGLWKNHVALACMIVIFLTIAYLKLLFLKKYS

Ig-MXP3 cells = test: Direct cytotoxicity; assay type: cell-based

Molecule: COc1ccccc1-c1cc2nc(-c3ccccc3)cc(N3CCN(C(=O)c4ccco4)CC3)n2n1 [Compound 37]
- ∼Fold G2 Selective (ABCG2): 2.9 fold

Molecule: COc1ccccc1C(=O)N1CCN(c2cc(-c3ccccc3)nc3cc(-c4cccc(Cl)c4)nn23)CC1 [Compound 14]
- ∼Fold G2 Selective (ABCG2): 1.0 fold

Molecule: COc1cccc(-c2cc(N3CCN(C(=O)c4ccoc4)CC3)n3nc(-c4ccccc4)cc3n2)c1 [Compound 65]
- ABCB1 TD50 (Jurkat-DNR cells): 5.77 µM
- ∼Fold G2 Selective (ABCG2): 83 fold
- ABCG2 TD50 (Ig-MXP3 cells): 67.80 µM

Molecule: COc1cccc(-c2cc(N3CCN(C(=O)c4ccoc4)CC3)n3nc(-c4cccc(Cl)c4)cc3n2)c1 [Compound 28]
- ∼Fold G2 Selective (ABCG2): 1.9 fold

Molecule: COc1ccc(-c2cc(N3CCN(C(=O)c4ccoc4)CC3)n3nc(-c4ccccc4)cc3n2)cc1 [Compound 45]
- ∼Fold G2 Selective (ABCG2): 1.9 fold

Molecule: COc1cccc(-c2cc3nc(-c4ccccc4)cc(N4CCN(C(=O)c5ccco5)CC4)n3n2)c1 [Compound 38]
- ∼Fold G2 Selective (ABCG2): 3.4 fold

Molecule: O=C(c1ccoc1)N1CCN(c2cc(-c3cccc(F)c3)nc3cc(-c4ccccc4)nn23)CC1 [Compound 47]
- ∼Fold G2 Selective (ABCG2): 4.2 fold

Molecule: O=C(c1ccoc1)N1CCN(c2cc(-c3ccco3)nc3cc(-c4cccc(Cl)c4)nn23)CC1 [Compound 53]
- ABCB1 TD50 (Jurkat-DNR cells): 8.53 µM
- ABCG2 TD50 (Ig-MXP3 cells): 10.80 µM

Molecule: CCCN(CCc1ccccc1)C(=O)[C@@H]1OC(C(=O)O)=C[C@H](O)[C@H]1NC(C)=O [Compound 39]
- ∼Fold G2 Selective (ABCG2): 2.7 fold

Molecule: O=C(c1ccoc1)N1CCN(c2cc(-c3cccnc3)nc3cc(-c4cccc(Cl)c4)nn23)CC1 [Compound 30]
- ABCB1 TD50 (Jurkat-DNR cells): 5.33 µM
- ∼Fold G2 Selective (ABCG2): 2.9 fold
- ABCG2 TD50 (Ig-MXP3 cells): 5.77 µM

Molecule: COc1ccc(C(=O)N2CCN(c3cc(-c4ccccc4)nc4cc(-c5cccc(Cl)c5)nn34)CC2)cc1 [Compound 16]
- ∼Fold G2 Selective (ABCG2): 1.0 fold

Molecule: CC(=O)N1CCN(c2cc(-c3ccco3)nc3cc(-c4cccc(Cl)c4)nn23)CC1 [Compound 87]
- ABCB1 TD50 (Jurkat-DNR cells): 17.60 µM
- ABCG2 TD50 (Ig-MXP3 cells): >100 µM

Molecule: CC(=O)N1CCN(c2cc(-c3ccco3)nc3cc(-c4ccccc4)nn23)CC1 [Compound 74]
- ABCB1 TD50 (Jurkat-DNR cells): 10.10 µM
- ABCG2 TD50 (Ig-MXP3 cells): >100 µM

Molecule: O=C(c1cccc(Cl)c1)N1CCN(c2cc(-c3ccccc3)nc3cc(-c4cccc(Cl)c4)nn23)CC1 [Compound 18]
- ∼Fold G2 Selective (ABCG2): 1.4 fold

Molecule: COc1cccc(-c2cc3nc(-c4ccccc4)cc(N4CCN(C(=O)c5ccoc5)CC4)n3n2)c1 [Compound 35]
- ∼Fold G2 Selective (ABCG2): 2.0 fold

Molecule: O=C(c1ccccc1)N1CCN(c2cc(-c3ccccc3)nc3cc(-c4cccc(F)c4)nn23)CC1 [Compound 42]
- ∼Fold G2 Selective (ABCG2): 1.9 fold

Molecule: CC(=O)N1CCN(c2cc(-c3ccccc3)nc3cc(-c4cccc(Cl)c4)nn23)CC1 [Compound 23]
- ∼Fold G2 Selective (ABCG2): 0.9 fold

Molecule: O=C(c1ccoc1)N1CCN(c2cc(-c3ccc(F)cc3)nc3cc(-c4cccc(Cl)c4)nn23)CC1 [Compound 27]
- ∼Fold G2 Selective (ABCG2): 2.3 fold

Molecule: O=C(c1ccoc1)N1CCN(c2cc(-c3ccccc3F)nc3cc(-c4ccccc4)nn23)CC1 [Compound 46]
- ∼Fold G2 Selective (ABCG2): 10.0 fold

Molecule: O=C(c1ccoc1)N1CCN(c2cc(-c3ccccc3)nc3cc(-c4cccc(Cl)c4)nn23)CC1 [Compound 11]
- ∼Fold G2 Selective (ABCG2): 7 fold and 7.2 fold

Molecule: O=C(c1ccoc1)N1CCN(c2cc(-c3ccccc3F)nc3cc(-c4cccc(Cl)c4)nn23)CC1 [Compound 26]
- ∼Fold G2 Selective (ABCG2): 2.4 fold

Molecule: Cc1cc(N2CCN(C(=O)c3ccco3)CC2)n2nc(-c3cccc(Cl)c3)cc2n1 [Compound 10]
- ∼Fold G2 Selective (ABCG2): 2.1 fold

Molecule: O=C(c1ccoc1)N1CCN(c2cc(-c3ccccc3)nc3cc(-c4ccc(Br)cc4)nn23)CC1 [Compound 33]
- ∼Fold G2 Selective (ABCG2): 1.7 fold

Molecule: COc1ccccc1-c1cc2nc(-c3ccccc3)cc(N3CCN(C(=O)c4ccccc4)CC3)n2n1 [Compound 41]
- ∼Fold G2 Selective (ABCG2): 3.0 fold

Molecule: O=C(c1ccccc1)N1CCN(c2cc(-c3ccccc3)nc3cc(-c4ccc(F)cc4)nn23)CC1 [Compound 43]
- ∼Fold G2 Selective (ABCG2): 2.0 fold

Molecule: O=C(c1ccoc1)N1CCN(c2cc(-c3ccco3)nc3cc(-c4ccco4)nn23)CC1 [Compound 52]
- ABCB1 TD50 (Jurkat-DNR cells): 1.93 µM
- ABCG2 TD50 (Ig-MXP3 cells): >100 µM

Molecule: COc1ccc(-c2cc(N3CCN(C(=O)c4ccoc4)CC3)n3nc(-c4cccc(Cl)c4)cc3n2)cc1 [Compound 29]
- ∼Fold G2 Selective (ABCG2): 2.4 fold

Molecule: Cc1cccc(-c2cc3nc(-c4ccccc4)cc(N4CCN(C(=O)c5ccco5)CC4)n3n2)c1 [Compound 40]
- ∼Fold G2 Selective (ABCG2): 1.6 fold

Molecule: O=C(NCCCN1CCOCC1)c1cnn2c(-c3ccccc3)cc(-c3ccccc3)nc12 [Compound 6, reversan, reference compound]
- ABCB1 TD50 (Jurkat-DNR cells): 7.04 µM
- ABCG2 TD50 (Ig-MXP3 cells): >100 µM

Molecule: C#Cc1cc(N2CCN(C(=O)c3ccoc3)CC2)n2nc(-c3cccc(Cl)c3)cc2n1 [Compound 32]
- ∼Fold G2 Selective (ABCG2): 4.3 fold

Molecule: O=C(c1ccoc1)N1CCN(c2cc(-c3ccoc3)nc3cc(-c4ccccc4)nn23)CC1 [Compound 61]
- ABCB1 TD50 (Jurkat-DNR cells): 7.33 µM
- ABCG2 TD50 (Ig-MXP3 cells): 18.30 µM

Molecule: O=C(c1ccoc1)N1CCN(c2cc(-c3ccc(F)cc3)nc3cc(-c4ccccc4)nn23)CC1 [Compound 48]
- ∼Fold G2 Selective (ABCG2): 1.8 fold

Molecule: O=C(c1ccccc1)N1CCN(c2cc(-c3ccccc3)nc3cc(-c4cccc(Cl)c4)nn23)CC1 [Compound 13]
- ∼Fold G2 Selective (ABCG2): 2.4 fold

Molecule: O=C(c1ccsc1)N1CCN(c2cc(-c3ccccc3)nc3cc(-c4cccc(Cl)c4)nn23)CC1 [Compound 12]
- ∼Fold G2 Selective (ABCG2): 2.8 fold

Molecule: XR9051 [Compound 2, reference compound]
- ABCB1 TD50 (Jurkat-DNR cells): 1.97 µM
- ABCG2 TD50 (Ig-MXP3 cells): 21.40 µM

Molecule: O=C(C1CCCCC1)N1CCN(c2cc(-c3ccccc3)nc3cc(-c4cccc(Cl)c4)nn23)CC1 [Compound 22]
- ∼Fold G2 Selective (ABCG2): 1.2 fold

Molecule: O=C(c1ccc(Cl)cc1)N1CCN(c2cc(-c3ccccc3)nc3cc(-c4cccc(Cl)c4)nn23)CC1 [Compound 19]
- ∼Fold G2 Selective (ABCG2): 0.9 fold

Molecule: COc1cccc(-c2cc3nc(-c4ccco4)cc(N4CCN(C(C)=O)CC4)n3n2)c1 [Compound 88]
- ABCB1 TD50 (Jurkat-DNR cells): 49.30 µM
- ABCG2 TD50 (Ig-MXP3 cells): >100 µM

Molecule: COc1cccc(-c2cc3nc(-c4ccco4)cc(N4CCN(C(=O)c5ccoc5)CC4)n3n2)c1 [Compound 56]
- ABCB1 TD50 (Jurkat-DNR cells): 5.52 µM
- ABCG2 TD50 (Ig-MXP3 cells): >100 µM

Molecule: O=C(c1ccccc1Cl)N1CCN(c2cc(-c3ccccc3)nc3cc(-c4cccc(Cl)c4)nn23)CC1 [Compound 17]
- ∼Fold G2 Selective (ABCG2): 1.4 fold

Molecule: CC(C)(C)c1cc(N2CCN(C(=O)c3ccoc3)CC2)n2nc(-c3ccccc3)cc2n1 [Compound 49]
- ∼Fold G2 Selective (ABCG2): 0.5 fold

Molecule: COc1ccc(-c2cc3nc(-c4ccco4)cc(N4CCN(C(=O)c5ccoc5)CC4)n3n2)cc1 [Compound 57]
- ABCB1 TD50 (Jurkat-DNR cells): >100 µM
- ABCG2 TD50 (Ig-MXP3 cells): >100 µM
